Laboratory results from ChEMBL document CHEMBL3817761, “Chenopodium album metabolites act as dual topoisomerase inhibitors and induce apoptosis in the MCF7 cell line” (Medchemcomm, 2016).
Calls of active or inactive are those of the source. The rule behind the calls is not given here.

Columns and labels:
MCF7 [1] = assay: Induction of apoptosis in human MCF7 cells assessed as cell detachment at 11.33 uM after 24 hrs by inverted phase contrast microscopy; type: functional, cell-based
MCF7 [2] = assay: Induction of apoptosis in human MCF7 cells assessed as rounded cells at 11.33 uM after 24 hrs by inverted phase contrast microscopy; type: functional, cell-based
MCF7 [3] = assay: Induction of apoptosis in human MCF7 cells assessed as caspase 9 cleavage at 11.33 uM after 48 hrs by Western blot analysis; type: functional, cell-based
MCF7 [4] = assay: Induction of mitochondrial membrane depolarization in human MCF7 cells at 11.33 uM by JC-1 staining based FACS assay; type: functional, cell-based; settings: TDE = time-dependent effect
MCF7 [5] = assay: Induction of apoptosis in human MCF7 cells assessed as early apoptotic cells at 11.33 uM after 24 hrs by Annexin-V-FITC/propidium iodide staining based flow cytometry (reference value: 2.3 %); type: functional
MCF7 [6] = assay: Induction of apoptosis in human MCF7 cells assessed as necrotic cells at 11.33 uM after 48 hrs by Annexin-V-FITC/propidium iodide staining based flow cytometry (reference value: 0.4 %); type: functional
MCF7 [7] = assay: Induction of apoptosis in human MCF7 cells assessed as viable cells at 11.33 uM after 24 hrs by Annexin-V-FITC/propidium iodide staining based flow cytometry (reference value: 95.9 %); type: functional; settings: MCF7, 24 h, read-out: Activity
MCF7 [8] = assay: Cell cycle arrest in human MCF7 cells assessed as accumulation at G2/M phase at 11.33 uM after 24 hrs by propidium iodide staining based flow cytometry (reference value: 25 %); type: functional
MCF7 [9] = assay: Cell cycle arrest in human MCF7 cells assessed as accumulation at S phase at 11.33 uM after 48 hrs by propidium iodide staining based flow cytometry (reference value: 20.6 %); type: functional
MCF7 [10] = assay: Induction of ROS accumulation in human MCF7 cells at 11.33 uM after 24 hrs by CM-H2-DCFDA probe based flow cytometry (reference value: 12.6 %); type: functional
MCF7 [11] = assay: Induction of ROS accumulation in human MCF7 cells at 11.33 uM after 12 hrs by CM-H2-DCFDA probe based flow cytometry (reference value: 5.1 %); type: functional
MCF7 [12] = assay: Induction of apoptosis in human MCF7 cells assessed as necrotic cells at 11.33 uM after 24 hrs by Annexin-V-FITC/propidium iodide staining based flow cytometry (reference value: 1.7 %); type: functional
MCF7 [13] = assay: Cell cycle arrest in human MCF7 cells assessed as accumulation at G2/M phase at 11.33 uM after 48 hrs by propidium iodide staining based flow cytometry (reference value: 19.8 %); type: functional
MCF7 [14] = assay: Induction of apoptosis in human MCF7 cells assessed as late apoptotic cells at 11.33 uM after 48 hrs by Annexin-V-FITC/propidium iodide staining based flow cytometry relative to control; type: functional
MCF7 [15] = assay: Induction of mitochondrial membrane depolarization in human MCF7 cells at 11.33 uM after 24 hrs by JC-1 staining based FACS assay (reference value: 9.9 %); type: functional
MCF7 [16] = assay: Induction of mitochondrial membrane depolarization in human MCF7 cells at 11.33 uM after 48 hrs by JC-1 staining based FACS assay (reference value: 9.9 %); type: functional
MCF7 [17] = assay: Induction of mitochondrial membrane depolarization in human MCF7 cells assessed as ratio of red to green fluorescence at 11.33 uM after 48 hrs by JC-1 staining based FACS assay (reference value: 9.1); type: functional
MCF7 [18] = assay: Induction of apoptosis in human MCF7 cells assessed as viable cells at 8.27 uM after 48 hrs by Annexin-V-FITC/propidium iodide staining based flow cytometry (reference value: 99.2 %); type: functional; settings: MCF7, 48 h, read-out: Activity
MCF7 [19] = assay: Induction of apoptosis in human MCF7 cells assessed as necrotic cells at 8.27 uM after 24 hrs by Annexin-V-FITC/propidium iodide staining based flow cytometry (reference value: 1.7 %); type: functional
MCF7 [20] = assay: Induction of apoptosis in human MCF7 cells assessed as early apoptotic cells at 8.27 uM after 24 hrs by Annexin-V-FITC/propidium iodide staining based flow cytometry (reference value: 2.3 %); type: functional
MCF7 [21] = assay: Cell cycle arrest in human MCF7 cells assessed as accumulation at G0/G1 phase at 8.27 uM after 24 hrs by propidium iodide staining based flow cytometry (reference value: 50.3 %); type: functional
MCF7 [22] = assay: Induction of ROS accumulation in human MCF7 cells at 8.27 uM after 24 hrs by CM-H2-DCFDA probe based flow cytometry (reference value: 12.6 %); type: functional
MCF7 [23] = assay: Cell cycle arrest in human MCF7 cells assessed as accumulation at S phase at 8.27 uM after 24 hrs by propidium iodide staining based flow cytometry (reference value: 24.5 %); type: functional
MCF7 [24] = assay: Induction of apoptosis in human MCF7 cells assessed as rounded cells at 8.27 uM after 24 hrs by inverted phase contrast microscopy; type: functional, cell-based
MCF7 [25] = assay: Induction of mitochondrial membrane depolarization in human MCF7 cells assessed as ratio of red to green fluorescence at 8.27 uM after 48 hrs by JC-1 staining based FACS assay (reference value: 9.1); type: functional
MCF7 [26] = assay: Induction of mitochondrial membrane depolarization in human MCF7 cells at 8.27 uM by JC-1 staining based FACS assay; type: functional, cell-based; settings: TDE = time-dependent effect
MCF7 [27] = assay: Induction of ROS accumulation in human MCF7 cells at 8.27 uM after 12 hrs by CM-H2-DCFDA probe based flow cytometry (reference value: 5.1 %); type: functional
MCF7 [28] = assay: Induction of apoptosis in human MCF7 cells assessed as caspase 9 cleavage at 8.27 uM after 48 hrs by Western blot analysis; type: functional, cell-based
MCF7 [29] = assay: Induction of apoptosis in human MCF7 cells assessed as necrotic cells at 8.27 uM after 48 hrs by Annexin-V-FITC/propidium iodide staining based flow cytometry (reference value: 0.4 %); type: functional
MCF7 [30] = assay: Induction of mitochondrial membrane depolarization in human MCF7 cells assessed as ratio of red to green fluorescence at 8.27 uM after 24 hrs by JC-1 staining based FACS assay (reference value: 9.1); type: functional
MCF7 [31] = assay: Cell cycle arrest in human MCF7 cells assessed as accumulation at S phase at 8.27 uM after 48 hrs by propidium iodide staining based flow cytometry (reference value: 20.6 %); type: functional
MCF7 [32] = assay: Cell cycle arrest in human MCF7 cells assessed as accumulation at G2/M phase at 8.27 uM after 48 hrs by propidium iodide staining based flow cytometry (reference value: 19.8 %); type: functional
MCF7 [33] = assay: Induction of apoptosis in human MCF7 cells assessed as viable cells at 8.27 uM after 24 hrs by Annexin-V-FITC/propidium iodide staining based flow cytometry (reference value: 95.9 %); type: functional; settings: MCF7, 24 h, read-out: Activity
MCF7 [34] = assay: Induction of apoptosis in human MCF7 cells assessed as cell detachment at 8.27 uM after 24 hrs by inverted phase contrast microscopy; type: functional, cell-based
MCF7 [35] = assay: Induction of apoptosis in human MCF7 cells assessed as late apoptotic cells at 8.27 uM after 48 hrs by Annexin-V-FITC/propidium iodide staining based flow cytometry relative to control; type: functional
MCF7 [36] = assay: Induction of mitochondrial membrane depolarization in human MCF7 cells at 8.27 uM after 48 hrs by JC-1 staining based FACS assay (reference value: 9.9 %); type: functional

With `CC1(C)CC[C@]2(C(=O)O)CC[C@]3(C)C(=CC[C@@H]4[C@@]5(C)CC[C@H](O[C@@H]6O[C@H](C(=O)O)[C@@H](O)[C@H](O)[C@H]6O)C(C)(C)[C@@H]5CC[C@]43C)[C@@H]2C1` the Activity (MCF7 [1]) was “Active”, the Activity (MCF7 [2]) was “Active” and the Activity (MCF7 [3]) was “Active”. The Activity (MCF7 [4]) was “tde”, the Activity (MCF7 [5]) was 11.6% and the Activity (MCF7 [6]) was 0.8%. It also gave a viability at 11.33 µM (MCF7 [7]) of 87.5%, an Activity (MCF7 [8]) of 24.3% and an Activity (MCF7 [9]) of 47.1%. It also gave an Activity (MCF7 [10]) of 99.9%, an Activity (MCF7 [11]) of 50.4% and an Activity (MCF7 [12]) of 0.7%. The Activity (MCF7 [13]) was 17%, the Activity (MCF7 [14]) was 1.3% and the Activity (MCF7 [15]) was 14%. The Activity (MCF7 [16]) was 54.9% and the Ratio (MCF7 [17]) was 0.821.

Work on `C[C@@H]1CC[C@@]2(OC1)O[C@H]1C[C@H]3[C@@H]4CC[C@H]5C[C@@H](O[C@@H]6O[C@H](CO)[C@H](O[C@@H]7O[C@H](CO)[C@@H](O)[C@H](O[C@@H]8OC[C@@H](O)[C@H](O)[C@H]8O)[C@H]7O[C@@H]7O[C@H](CO)[C@@H](O)[C@H](O)[C@H]7O)[C@H](O)[C@H]6O)CC[C@]5(C)[C@H]4CC[C@]3(C)[C@H]1[C@@H]2C` [DEGALACTOTIGONIN] yielded a viability at 8.27 µM (MCF7 [18]) of 0.7%, an Activity (MCF7 [19]) of 3% and an Activity (MCF7 [20]) of 5.5%. It also gave an Activity (MCF7 [21]) of 43.8%, an Activity (MCF7 [22]) of 99.9% and an Activity (MCF7 [23]) of 27.5%. The Activity (MCF7 [24]) was “Active”, the Ratio (MCF7 [25]) was 0.437 and the Activity (MCF7 [26]) was “tde”. The Activity (MCF7 [27]) was 50.5%, the Activity (MCF7 [28]) was “Active” and the Activity (MCF7 [29]) was 0%. The Ratio (MCF7 [30]) was 9, the Activity (MCF7 [31]) was 40.1% and the Activity (MCF7 [32]) was 22.5%. For the same compound, the viability at 8.27 µM (MCF7 [33]) was 91%, the Activity (MCF7 [34]) was “Active” and the Activity (MCF7 [35]) was 0.6%. For the same compound, the Activity (MCF7 [36]) was 69.6%.
